Results from patent US8952024B2, “Herbicidal pyrimidone derivatives” (E I du Pont de Nemours and Company, priority 2009, dated 2015).

Tests used:
Type in all cases: in vivo
[1] = tested on: chickweed (Stellaria media); experiment: Test B postemergence plant response
Outline: (§1)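 Plants grown in peat/vermiculite medium were sprayed postemergence at 2–18 cm height (1- to 4-leaf stage). After 13–15 days in the greenhouse, response was rated visually against untreated controls on a 0–100 scale (0 no effect, 100 complete control).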

[2] = tested on: winter barley (Hordeum vulgare); experiment: Test B postemergence plant response
Outline: as §1

[3] = tested on: windgrass (Apera spica-venti); experiment: Test B postemergence plant response; settings: for Plant response rating, Windgrass: Postemergence
Outline: as §1

[4] = tested on: canarygrass (Phalaris minor); experiment: Test B postemergence plant response
Outline: as §1

[5] = tested on: velvetleaf (Abutilon theophrasti); experiment: Test B pre-/postemergence plant response
Outline: (§2)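 Ratings reflect visual comparison with untreated controls 13 to 15 days after application, from 0 (no effect) to 100 (complete control). Application was preemergence to seeded loam/sand soil or postemergence to 1- to 4-leaf plants, with compound in a non-phytotoxic, surfactant-containing solvent.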

[6] = tested on: yellow nutsedge (Cyperus esculentus); experiment: Test B pre-/postemergence plant response
Outline: as §2

[7] = tested on: green foxtail (Setaria viridis); experiment: Test B pre-/postemergence plant response
Outline: as §2

[8] = tested on: johnsongrass (Sorghum halepense); experiment: Test B pre-/postemergence plant response
Outline: as §2

corn (Zea mays) = experiment: Test B pre-/postemergence plant response
Outline: as §2

[9] = tested on: lambsquarters (Chenopodium album); experiment: Test B pre-/postemergence plant response
Outline: as §2

[10] = tested on: pigweed (Amaranthus retroflexus); experiment: Test B pre-/postemergence plant response
Outline: as §2

soybean (Glycine max) = experiment: Test B pre-/postemergence plant response
Outline: as §2

[11] = tested on: goosegrass (Eleusine indica); experiment: Test B pre-/postemergence plant response
Outline: as §2

[12] = tested on: giant foxtail (Setaria faberii); experiment: Test B pre-/postemergence plant response
Outline: as §2

[13] = Postemergence, 31 g ai/ha, 0 to 100 scale (0 no effect, 100 complete control)
[14] = Postemergence, 62 g ai/ha, scale 0 to 100 (0 no effect, 100 complete control)
[15] = Postemergence, 125 g ai/ha, scale 0 to 100 (0 no effect, 100 complete control)
[16] = Postemergence, 250 g ai/ha, scale 0 to 100 (0 no effect, 100 complete control), 13 to 15 days
[17] = Preemergence, 31 g ai/ha, scale 0 to 100 (0 no effect, 100 complete control)
[18] = Preemergence, 62 g ai/ha, scale 0 to 100 (0 no effect, 100 complete control)
[19] = Preemergence, 125 g ai/ha, scale 0 to 100, 0 no effect, 100 complete control
[20] = Preemergence, 250 g ai/ha, 0 to 100 scale
[21] = 31 g ai/ha, postemergence, scale 0 to 100, 0 is no effect, 100 is complete control
[22] = 62 g ai/ha, postemergence, 0 is no effect, 100 is complete control, 13 to 15 days
[23] = Postemergence, 250 g ai/ha, scale 0 to 100 (0 no effect, 100 complete control)

CCc1ccc(-n2c(-c3ccccc3)ncc(C(=O)C3=C(O)CCCC3=O)c2=O)cc1 [Compound 219]
Plant response rating, Chickweed [1, 13]: 100
Plant response rating, Chickweed [1, 14]: 100
Plant response rating, Chickweed [1, 15]: 100
Plant response rating, Chickweed [1, 16]: 100
Plant response rating, Barley [2, 13]: 0
Plant response rating, Barley [2, 14]: 25
Plant response rating, Barley [2, 15]: 30
Plant response rating, Barley [2, 16]: 30
Plant response rating, Windgrass ([3]; 31 g ai/ha, 0 to 100 scale (0 no effect, 100 complete control)): 35
Plant response rating, Windgrass ([3]; 62 g ai/ha, scale 0 to 100 (0 no effect, 100 complete control)): 40
Plant response rating, Windgrass ([3]; 250 g ai/ha, scale 0 to 100 (0 no effect, 100 complete control), 13 to 15 days): 85
Plant response rating, Canarygrass [4, 13]: 35
Plant response rating, Canarygrass [4, 14]: 55
Plant response rating, Canarygrass [4, 15]: 55
Plant response rating, Canarygrass [4, 16]: 55
Plant response rating, Velvetleaf [5, 13]: 85
Plant response rating, Velvetleaf [5, 14]: 90
Plant response rating, Velvetleaf [5, 16]: 98
Plant response rating, Velvetleaf [5, 17]: 0
Plant response rating, Velvetleaf [5, 18]: 75
Plant response rating, Velvetleaf [5, 19]: 90
Velvetleaf plant response rating [5, 20]: 95
Plant response rating, Nutsedge, Yellow [6, 13]: 10
Plant response rating, Nutsedge, Yellow [6, 14]: 55
Plant response rating, Nutsedge, Yellow [6, 15]: 70
Plant response rating, Nutsedge, Yellow [6, 16]: 85
Plant response rating, Nutsedge, Yellow [6, 17]: 0
Plant response rating, Nutsedge, Yellow [6, 18]: 45
Plant response rating, Nutsedge, Yellow [6, 19]: 85
Nutsedge, Yellow plant response rating [6, 20]: 90
Plant response rating, Foxtail, Green [7, 13]: 70
Plant response rating, Foxtail, Green [7, 14]: 80
Plant response rating, Foxtail, Green [7, 15]: 90
Plant response rating, Foxtail, Green [7, 16]: 90
Plant response rating, Foxtail, Green [7, 17]: 20
Plant response rating, Foxtail, Green [7, 18]: 70
Plant response rating, Foxtail, Green [7, 19]: 90
Foxtail, Green plant response rating [7, 20]: 100
Plant response rating, Johnsongrass [8, 14]: 60
Plant response rating, Johnsongrass [8, 15]: 98
Plant response rating, Johnsongrass [8, 16]: 100
Plant response rating, Johnsongrass [8, 17]: 0
Plant response rating, Johnsongrass [8, 18]: 15
Plant response rating, Johnsongrass [8, 19]: 65
Johnsongrass plant response rating [8, 20]: 80
Plant response rating, Corn (corn (Zea mays); [13]): 10
Plant response rating, Corn (corn (Zea mays); [14]): 60
Plant response rating, Corn (corn (Zea mays); [15]): 75
Plant response rating, Corn (corn (Zea mays); [16]): 80
Plant response rating, Corn (corn (Zea mays); [17]): 0
Plant response rating, Corn (corn (Zea mays); [18]): 0
Plant response rating, Corn (corn (Zea mays); [19]): 0
Corn plant response rating (corn (Zea mays); [20]): 0
Plant response rating, Lambsquarters [9, 13]: 100
Plant response rating, Lambsquarters [9, 14]: 100
Plant response rating, Lambsquarters [9, 15]: 100
Plant response rating, Lambsquarters [9, 16]: 100
Plant response rating, Lambsquarters [9, 17]: 100
Plant response rating, Lambsquarters [9, 18]: 100
Plant response rating, Lambsquarters [9, 19]: 100
Lambsquarters plant response rating [9, 20]: 100
Plant response rating, Pigweed [10, 13]: 100
Plant response rating, Pigweed [10, 14]: 100
Plant response rating, Pigweed [10, 16]: 100
Plant response rating, Pigweed [10, 17]: 100
Plant response rating, Pigweed [10, 18]: 100
Plant response rating, Pigweed [10, 19]: 100
Pigweed plant response rating [10, 20]: 100
Plant response rating, Soybean (soybean (Glycine max); [13]): 95
Plant response rating, Soybean (soybean (Glycine max); [14]): 98
Plant response rating, Soybean (soybean (Glycine max); [16]): 100
Plant response rating, Soybean (soybean (Glycine max); [17]): 0
Plant response rating, Soybean (soybean (Glycine max); [18]): 0
Plant response rating, Soybean (soybean (Glycine max); [19]): 65
Soybean plant response rating (soybean (Glycine max); [20]): 75
Plant response rating, Goosegrass [11, 13]: 90
Plant response rating, Goosegrass [11, 14]: 95
Plant response rating, Goosegrass [11, 15]: 95
Plant response rating, Goosegrass [11, 16]: 95
Plant response rating, Goosegrass [11, 17]: 98
Plant response rating, Goosegrass [11, 18]: 100
Plant response rating, Goosegrass [11, 19]: 100
Goosegrass plant response rating [11, 20]: 100
Plant response rating, Foxtail, Giant [12, 13]: 70
Plant response rating, Foxtail, Giant [12, 14]: 70
Plant response rating, Foxtail, Giant [12, 15]: 80
Plant response rating, Foxtail, Giant [12, 16]: 95
Plant response rating, Foxtail, Giant [12, 17]: 0
Plant response rating, Foxtail, Giant [12, 18]: 0
Plant response rating, Foxtail, Giant [12, 19]: 10
Foxtail, Giant plant response rating [12, 20]: 80

COCCCn1c(-c2cccc(C)c2)ncc(C(=O)C2=C(O)CCCC2=O)c1=O [Compound 118, 5-[(2-hydroxy-6-oxo-1-cyclohexane-1-yl)carbonyl]-3-(3-methoxypropyl)-2-(3-methylphenyl)-4(3H)-pyrimidinone]
Plant response rating, Chickweed [1, 21]: 90
Chickweed plant response rating (0 to 100 scale) [1, 22]: 95
Plant response rating, Chickweed [1, 15]: 95
Plant response rating, Chickweed [1, 23]: 100
Plant response rating, Barley [2, 21]: 0
Barley plant response rating (0 to 100 scale) [2, 22]: 0
Plant response rating, Barley [2, 15]: 0
Plant response rating, Barley [2, 23]: 0
Windgrass plant response rating (0 to 100 scale) [3, 22]: 60
Plant response rating, Windgrass ([3]; 125 g ai/ha, scale 0 to 100 (0 no effect, 100 complete control)): 70
Plant response rating, Canarygrass [4, 21]: 0
Canarygrass plant response rating (0 to 100 scale) [4, 22]: 0
Plant response rating, Canarygrass [4, 15]: 10
Plant response rating, Canarygrass [4, 23]: 15
Velvetleaf plant response rating (0 to 100 scale) [5, 22]: 75
Plant response rating, Velvetleaf [5, 15]: 98
Plant response rating, Velvetleaf [5, 23]: 100
Plant response rating, Nutsedge, Yellow [6, 21]: 35
Nutsedge, Yellow plant response rating (0 to 100 scale) [6, 22]: 45
Plant response rating, Nutsedge, Yellow [6, 15]: 65
Plant response rating, Nutsedge, Yellow [6, 23]: 65
Plant response rating, Foxtail, Green [7, 21]: 50
Foxtail, Green plant response rating (0 to 100 scale) [7, 22]: 85
Plant response rating, Foxtail, Green [7, 15]: 95
Plant response rating, Foxtail, Green [7, 23]: 95
Plant response rating, Johnsongrass [8, 21]: 10
Johnsongrass plant response rating (0 to 100 scale) [8, 22]: 10
Plant response rating, Johnsongrass [8, 15]: 20
Plant response rating, Johnsongrass [8, 23]: 35
Plant response rating, Corn (corn (Zea mays); [21]): 0
Corn plant response rating (0 to 100 scale) (corn (Zea mays); [22]): 0
Plant response rating, Corn (corn (Zea mays); [15]): 20
Plant response rating, Corn (corn (Zea mays); [23]): 25
Plant response rating, Lambsquarters [9, 21]: 85
Lambsquarters plant response rating (0 to 100 scale) [9, 22]: 98
Plant response rating, Lambsquarters [9, 15]: 100
Plant response rating, Lambsquarters [9, 23]: 100
Plant response rating, Pigweed [10, 21]: 85
Pigweed plant response rating (0 to 100 scale) [10, 22]: 100
Plant response rating, Pigweed [10, 15]: 100
Plant response rating, Pigweed [10, 23]: 100
Soybean plant response rating (0 to 100 scale) (soybean (Glycine max); [22]): 90
Plant response rating, Soybean (soybean (Glycine max); [15]): 95
Plant response rating, Soybean (soybean (Glycine max); [23]): 100
Plant response rating, Goosegrass [11, 21]: 55
Goosegrass plant response rating (0 to 100 scale) [11, 22]: 65
Plant response rating, Goosegrass [11, 15]: 80
Plant response rating, Goosegrass [11, 23]: 90
Plant response rating, Foxtail, Giant [12, 21]: 75
Foxtail, Giant plant response rating (0 to 100 scale) [12, 22]: 80
Plant response rating, Foxtail, Giant [12, 15]: 85
Plant response rating, Foxtail, Giant [12, 23]: 95
